From patent US11318157B2, “6-6 bicyclic aromatic ring substituted nucleoside analogues for use as PRMT5 inhibitors” (Janssen Pharmaceutica NV, priority 2015, dated 2022)

Columns and labels:
[1] = biological target: T1, PRMT5-MEP50 enzyme (Homo sapiens, UniProt O14744); assay: In vitro assay 1b: high throughput mass spectrometer assay of SAH formation, 1.25 nM enzyme, 120 min; type: biochemical; settings: averaged values; PRMT5-MEP50, 1.25 nM enzyme, 120 min; read-out: pIC50 Assay 1b (converted)
T1 construct: One virus expresses full length human PRMT5 with Flag-tag at N-terminus; Flag (N); purchased Charles River (Argenta); host or cells: insect cells (Sf9), baculovirus co-infection
From the text: Experimental Procedures In Vitro Assay (Assay 1a and 1b)
PRMT5-MEP50 enzyme was purchased from Charles River (Argenta). The enzyme complex was produced in insect cells (Sf9) infected simultaneously with two baculoviruses. One virus expresses full length human PRMT5 with Flag-tag at N-terminus, the second virus expresses full length MEP50 with His6-TEV cleavage at N-terminus. The protein was affinity purified using anti-Flag (M2) beads eluted with 3×FLAG peptide, followed by His-Select eluted with 0.5M imidazole. Eluted protein was then dialysed against tris-buffered saline (TBS) (pH 8.0) containing 20% glycerol and 3 mM dithiothreitol (DTT).
Full-length untagged human recombinant histone H2A (residues 1-130, Genbank Accession #NM_021052 MW=14.1 kDa) expressed in E. coli was purchased from Reaction Biology Corporation, Cat #HMT-11-146. Reagents used for making reaction buffer or stopping reaction were purchased including Tris base (Sigma Cat #T-1503), NaCl (Sigma Cat #RGF-3270), MgCl2 (Sigma Cat #M0250), DTTI (Invitrogen Cat #15508-013) and Formic Acid (Riedel deHaen, Cat #33015)
High Throughput Mass Spectrometer Assay
PRMT5 catalyzes the sequential methylations of the terminal nitrogen atoms on the guanidine groups of arginine residues within proteins using co-substrate S-adenosyl-L-methionine (AdoMet, SAM), forming mono-methyl (MMA), symmetric-dimethyl arginine (sDMA) and S-adenosyl-L-homocysteine (AdoHcy, SAH). The enzyme activity was determined by following the product SAH formation using high throughput mass spectrometry (Agilent Rapidfire 300 System coupled to a Sciex 4000 series QTrap® triple-quad MS/MS). The reaction buffer was 20 mM Tris-HCl, pH 8.5, 50 mM NaCl, 5 mM MgCl2 and 1 mM DTT. The reaction activity was stopped using 1% formic acid (final concentration).
The IC50 Studies were performed using eleven point dosing series made for each compound by serially diluted 1:2 in dimethyl sulfoxide (DMSO), with point 12 being a DMSO control. Compounds were first spotted to plates, and followed by addition of 2 μM SAM and 0.6 μM H2A (histone H2A) solution mixture. The same volume of enzyme solution was added to initiate the enzymatic reactions. The final concentrations of the reaction are at 1 μM SAM, 0.3 μM H2A and 10 nM enzyme (assay 1a) or 1.25 nM enzyme (assay 1b). The reaction was incubated at 30° C. for 60 minutes (min) when 10 nM enzyme was used and for 120 min when 1.25 nM enzyme was used. Subsequently, the reaction was quenched by addition of formic acid to a final concentration of 1%. The inhibitions of SAH formation in the presence of compounds were calculated as a percentage of the control relative to the uninhibited reaction as a function of inhibitor concentration. The data were fit as follows: Y=Bottom+(Top−Bottom)/(1+10^((log IC50−X)*h))
where IC50 is the inhibitor concentration (same unit as X) at 50% inhibition and h is the Hill slope. Y is percent of inhibition, X is log of compound concentration. Bottom and Top are the plateaus in same units as Y.

[2] = tested on: nuclear symmetric Arginine dimethylation in A549 cells; assay: PD assay (assay 2): inhibition of nuclear symmetric Arginine dimethylation (SYM10 immunohistochemistry), 48 h; type: cell-based; settings: Homo sapiens, A549, averaged values; PD assay, A549 cells, symmetric Arginine dimethylation; read-out: pIC50 Assay 2 (converted)
Method: Experimental Procedure PD Assay (Assay 2)
A549 cells (ATCC, Cat #CCL-185) were cultured in Dulbecco's Modified Eagle's Medium (DMEM) (Sigma, Cat #D5796), supplemented with 10% Fetal Calf Serum (FCS) (HyClone™, Cat #SV30160.03), 100 mM Sodium Pyruvate (Sigma, Cat #S8636), 200 mM L-Glutamine (Sigma, Cat #G7513) and 50 mg/mL gentamycin (Gibco, Cat #15750-037).
Reagents used for buffers were purchased: Dulbecco's phosphate buffered saline (DPBS) without Ca/Mg (Sigma, Cat #D8537), phosphate buffered saline (PBS) 10× (Roche, Cat #11 666 789 001), Formalin solution 10% (Sigma, HT50-1-128-4L), Methanol 100% (Sigma, Cat #32213-2.5L), Triton X-100 (Acros, Cat #215680010), Bovine Serum Albumin (BSA) (Sigma, Cat #A2153), Alexa fluor 488 goat anti-rabbit antibody (Life Technologies, Cat #A11034), HCS CellMask Deep Red Stain (Life Technologies, Cat #H32721), Hoechst Stain (Life Technologies, Cat #33258), Anti-dimethyl-Arginine, sym (SYM10) antibody (Millipore, 07-412).
Immunohistochemistry Procedure
Cells were plated at 400 cells/40 μL/well in 384 well black μplates clear bottom (Perkin Elmer) and overnight incubated at 37° C., 5% CO2. […] 80 nL of the respective dilution of the compounds was added using the Labcyte POD 810 (Labcyte) reaching a final DMSO concentration of 0.2% in cell culture. After an incubation period of 48 h at 37° C. and 5% CO2, cells were fixed in 10% formalin solution for 15 min at room temperature and 20 min in ice-cold methanol, after which they were washed 3× in DPBS. Subsequently, the cells were blocked for 1 h in blocking buffer (PBS+1% BSA and 0.5% Triton X-100) and incubated overnight at 4° C. with the SYM10 antibody diluted 1/2000 in blocking buffer. The cells were washed 3× with washing buffer (PBS+0.1% Triton X-100) and incubated with the Alexa fluor 488 goat anti-rabbit antibody diluted 1/200 in blocking buffer for 1 h at room temperature. Subsequently, they were washed 3× with washing buffer and incubated for 30 min at room temperature with PBS containing a 1/5000 dilution of Hoechst Stain and a 1/5000 dilution of the HCS CellMask Deep Red Stain. After a final wash with PBS, the plates were imaged using the 10×W lens of the Opera® system (Perkin Elmer Life Sciences) using following settings (values in nm):
In the above equations, the following variable names are used: […]
In the above equations, the following controls were used for normalization: […]
Low control: minimum level of symmetrically dimethylated Arginines (cells treated with reference compound at 10 μM).
High control: maximum level of symmetrically dimethylated Arginines (DMSO treated cells).
IC50 and pIC50 (−log IC50) values were calculated using the appropriate software.
The pIC50 values in the Table below are averaged values (Co. No. means compound number; n.d. means not determined).

T1 sequence (O14744 whole entry): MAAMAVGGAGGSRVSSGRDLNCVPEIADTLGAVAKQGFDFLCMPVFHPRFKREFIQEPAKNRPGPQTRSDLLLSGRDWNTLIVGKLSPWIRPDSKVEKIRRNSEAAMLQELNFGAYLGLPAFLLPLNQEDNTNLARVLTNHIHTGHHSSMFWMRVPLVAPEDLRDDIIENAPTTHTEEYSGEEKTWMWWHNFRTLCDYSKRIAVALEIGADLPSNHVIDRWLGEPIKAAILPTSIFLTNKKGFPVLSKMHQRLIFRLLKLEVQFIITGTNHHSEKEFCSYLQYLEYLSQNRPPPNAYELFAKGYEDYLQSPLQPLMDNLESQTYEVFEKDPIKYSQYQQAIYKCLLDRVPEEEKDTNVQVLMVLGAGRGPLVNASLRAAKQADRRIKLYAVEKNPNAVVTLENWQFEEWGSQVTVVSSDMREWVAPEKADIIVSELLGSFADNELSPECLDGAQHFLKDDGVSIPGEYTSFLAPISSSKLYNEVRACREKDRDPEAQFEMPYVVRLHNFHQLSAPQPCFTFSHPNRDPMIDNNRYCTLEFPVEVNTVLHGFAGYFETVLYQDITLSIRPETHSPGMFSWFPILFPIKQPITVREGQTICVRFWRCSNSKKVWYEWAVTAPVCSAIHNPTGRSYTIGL
T1 sequence (Q9BQA1 whole entry partner): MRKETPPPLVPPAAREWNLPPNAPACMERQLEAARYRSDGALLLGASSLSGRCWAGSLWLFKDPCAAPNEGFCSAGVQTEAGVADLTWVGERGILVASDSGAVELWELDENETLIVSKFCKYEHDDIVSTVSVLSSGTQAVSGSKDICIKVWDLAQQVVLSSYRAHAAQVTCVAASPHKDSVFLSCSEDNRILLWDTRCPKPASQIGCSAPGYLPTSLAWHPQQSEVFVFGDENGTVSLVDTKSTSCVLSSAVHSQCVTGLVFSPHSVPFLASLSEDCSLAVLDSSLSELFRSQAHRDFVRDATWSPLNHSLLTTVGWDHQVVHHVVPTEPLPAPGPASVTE

| IC50 [1] [nM] | IC50 [2] [nM] | SMILES |
| --- | --- | --- |
| 6.31 | 316 | COc1ncnc2c1ccn2[C@@H]1C[C@H](CCc2ccc3ccc(NCC(F)F)nc3c2)[C@@H](O)[C@H]1O [Compound 182] |
| 0.501 | 6.31 | CNc1ncnc2c1ccn2[C@@H]1C[C@H](CCc2ccc3ccc(NC4CCC4)nc3c2)[C@@H](O)[C@H]1O [Compound 183] |
| 2 | 63.1 | CNc1ncnc2c1ccn2[C@@H]1C[C@H](CCc2ccc3ccc(NCC(F)F)nc3c2)[C@@H](O)[C@H]1O [Compound 184] |
| 39.8 | 631 | COc1ncnc2c1ccn2[C@@H]1C[C@H](CCc2ccc3ccc(NCC(F)(F)F)nc3c2)[C@@H](O)[C@H]1O [Compound 188] |
| 0.631 | 1.58 | CNc1ncnc2c1ccn2[C@@H]1C[C@H](CCc2ccc3cc(Cl)c(N)nc3c2)[C@@H](O)[C@H]1O [Compound 194] |
| 0.501 | 25.1 | COc1ncnc2c1ccn2[C@@H]1C[C@H](CCc2ccc3cc(Cl)c(N)nc3c2)[C@@H](O)[C@H]1O [Compound 195] |
| 2 | 100 | CC(C)Nc1ncnc2c1ccn2[C@@H]1C[C@H](CCc2ccc3cc(Cl)c(N)nc3c2)[C@@H](O)[C@H]1O [Compound 196] |
| 0.631 | 31.6 | Nc1nc2cc(CC[C@H]3C[C@@H](n4ccc5c(NC6CC6)ncnc54)[C@H](O)[C@@H]3O)ccc2cc1Cl [Compound 197] |
| 3.98 | 63.1 | CNc1ncnc2c1ccn2[C@@H]1O[C@H](CCc2ccc3cc(Cl)c(N)nc3c2)[C@@H](O)[C@H]1O [Compound 198] |
| 39.8 | 251 | COc1ncnc2c1ccn2[C@@H]1O[C@H](CCc2ccc3cc(Cl)c(N)nc3c2)[C@@H](O)[C@H]1O [Compound 199] |
| 6.31 | 1000 | COc1ncnc2c1ccn2[C@@H]1C[C@H](CCc2ccc3cc(C(F)(F)F)c(N)nc3c2)[C@@H](O)[C@H]1O [Compound 200] |
| 1.58 | 39.8 | CNc1ncnc2c1ccn2[C@@H]1C[C@H](CCc2ccc3cc(C(F)(F)F)c(N)nc3c2)[C@@H](O)[C@H]1O [Compound 201] |
| 1.58 | 15.8 | CNc1ncnc2c1ccn2[C@@H]1C[C@H](CCc2ccc3cc(F)c(N)nc3c2)[C@@H](O)[C@H]1O [Compound 202] |
| > 2510 | 6310 | CNc1nc2cc(CC[C@H]3C[C@@H](n4ccc5c(NC)ncnc54)[C@H](O)[C@@H]3O)ccc2cc1F [Compound 203] |
| 3.98 | 63.1 | COc1ncnc2c1ccn2[C@@H]1C[C@H](CCc2ccc3cc(F)c(N)nc3c2)[C@@H](O)[C@H]1O [Compound 204] |
| 1.58 | 25.1 | CNc1ncnc2c1ccn2[C@@H]1C[C@H](CCc2ccc3ccc(NC(C)C)nc3c2)[C@@H](O)[C@H]1O [Compound 206] |

| IC50 [1] [nM] | IC50 [2] [nM] | SMILES |
| --- | --- | --- |
| 0.316 | 15.8 | CNc1ncnc2c1ccn2[C@@H]1C[C@H](CCc2ccc3ccc(NCC4CC4)nc3c2)[C@@H](O)[C@H]1O [Compound 209] |
| 2.51 | 126 | COc1ncnc2c1ccn2[C@@H]1C[C@H](CCc2ccc3ccc(NCC4CC4)nc3c2)[C@@H](O)[C@H]1O [Compound 210] |
| 3.16 | ~2570 | C=Cc1ncnc2c1ccn2[C@@H]1C[C@H](CCc2ccc3ccc(NCC4CC4)nc3c2)[C@@H](O)[C@H]1O [Compound 211] |
| 0.2 | 1.26 | Nc1nc2cc(OC[C@H]3C[C@@H](n4ccc5c(N)ncnc54)[C@H](O)[C@@H]3O)ccc2cc1Cl [Compound 223] |
| 6.31 | 100 | CNc1ccc2ccc(OC[C@H]3C[C@@H](n4ccc5c(NC)ncnc54)[C@H](O)[C@@H]3O)cc2n1 [Compound 226] |
| 1.58 | 6.31 | CNc1ncnc2c1ccn2[C@@H]1C[C@H](COc2ccc3cc(Br)c(N)nc3c2)[C@@H](O)[C@H]1O [Compound 237] |
| 0.794 | 1.26 | CNc1ncnc2c1ccn2[C@@H]1C[C@H](CCc2ccc3cc(Br)c(N)nc3c2)[C@@H](O)[C@H]1O [Compound 238] |
| 10 | 25.1 | CNc1ncnc2c1ccn2[C@@H]1O[C@H](CCc2ccc3cc(Br)c(N)nc3c2)[C@@H](O)[C@H]1O [Compound 239] |
| < 0.2 | < 1.17 | Nc1nc2cc(CC[C@H]3C[C@@H](n4ccc5c(N)nc(Cl)nc54)[C@H](O)[C@@H]3O)ccc2cc1Cl [Compound 240] |
| 2.51 | < 1.17 | Nc1nc2cc(CC[C@H]3C[C@@H](n4ccc5cnc(Cl)nc54)[C@H](O)[C@@H]3O)ccc2cc1Cl [Compound 241] |
| 1 | < 1.17 | Nc1nc2cc(CC[C@H]3C[C@@H](n4ccc5cncnc54)[C@H](O)[C@@H]3O)ccc2cc1Cl [Compound 242] |
| 0.794 | < 1.17 | Nc1ncc2ccn([C@@H]3C[C@H](CCc4ccc5cc(Cl)c(N)nc5c4)[C@@H](O)[C@H]3O)c2n1 [Compound 243] |
| 50.1 | 158 | Nc1nc2cc(CC[C@H]3C[C@@H](n4ccc5ncccc54)[C@H](O)[C@@H]3O)ccc2cc1Cl [Compound 248] |
| 20 | 501 | Nc1nc2cc(CC[C@H]3C[C@@H](n4ccc5cccnc54)[C@H](O)[C@@H]3O)ccc2cc1Cl [Compound 249] |
| 31.6 | 200 | Nc1nc2cc(CC[C@H]3C[C@@H](n4ccc5nccnc54)[C@H](O)[C@@H]3O)ccc2cc1Cl [Compound 250] |
